In experiment [1] the target is T1, CBL-B (Homo sapiens, UniProt Q13191).
T1 construct: endogenous in cells; host or cells: Jurkat HiBit-IL2 reporter cells, C-CBL knocked out by CRISPR
The experiment can be described thus: Jurkat HiBit-IL2 assay (c-CBL KO), reporter cell line expressing CBL-B only. It counts as cell-based. The note with it: geometric mean, read-out: C-CBL KO EC50 (nM) GMean. The method, boiled down:
(§1)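 IL-2 secretion was measured by HiBiT luminescence after 1 h compound exposure (0.1% DMSO) and 4 h TCR/CD28 stimulation (final anti-CD3 1 μg/ml, anti-CD28 2 μg/ml, 37 °C) of Jurkat reporters lacking c-CBL or CBL-B. EC50 came from fold-of-effect versus stimulated-only cells, as geometric means across tests.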
(In general: The HiBiT peptide binds its large partner to form an active luciferase.)

The target of experiment [2] is T2, C-CBL (Homo sapiens, UniProt P22681).
T2 construct: endogenous in cells; host or cells: Jurkat HiBit-IL2 reporter cells, CBL-B knocked out by CRISPR
The experiment is described as follows: Jurkat HiBit-IL2 assay (CBL-B KO), reporter cell line expressing C-CBL only. It counts as cell-based. The conditions noted are these: geometric mean, read-out: CBL-B KO EC50 (nM) GMean. An outline of the steps:
as §1

Experiment [3] concerns the target T3, CBL-B (residues 36-427) (Homo sapiens, UniProt Q13191).
T3 construct: Purified CBL-B (residues 36-427) and C-CBL (residues 46-435) proteins from baculovirus-infected insect cells; made in house; host or cells: baculovirus-infected insect cells
The experiment is described as follows: Ligand Displacement Assay (LDA), HTRF competitive binding against BODIPY-labeled fluorescent tracer, CBL-B. The conditions noted are these: geometric mean of the number of tests, read-out: CBL-B Ki (nM) GMean. The method, boiled down: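 Terbium-streptavidin donor on BirA-biotinylated, AviTagged protein from baculovirus-infected insect cells; BODIPY tracer as acceptor. Compound titrations were three-fold and duplicated, […] with 2% DMSO final.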
On the technique in general: Time-resolved FRET reads energy transfer from a long-lived donor to a nearby acceptor.

[4] abbreviates: c-CBL KO (CBL-B only), anti-CD3/anti-CD28 stimulation 4 hours, Table 16a.
Where [5] appears, read: CBL-B KO (C-CBL only), anti-CD3/anti-CD28 stimulation 4 hours, Table 16a.
Setting [6] is: C-CBL KO (expressing CBL-B only), Table 16b (further repetition).
Setting [7] is: CBL-B KO (expressing C-CBL only), Table 16b (further repetition).

Read-outs that look alike come from different tables or passages of the source.

Consider `CC(C)NC(C)c1nc(C(F)(F)F)cc2c(-c3cccc([C@H](c4nncn4C)C4CCC4)c3)n[nH]c12` (single isomer, unassigned) [Example C35], for which the EC50 in experiment [1] (setting [4]) turned out to be 15 nM; in experiment [2] (setting [5]) it was 172 nM. The Ki in experiment [3] was 3.1 nM.

On to `C[C@H](NC1CCC1)c1nc(C(F)(F)F)cc2c(-c3cccc(C4(Cc5nncn5C)COC4)c3)n[nH]c12` [Example F1, N-{(1S)-1-[3-(3-{3-[(4-methyl-4H-1,2,4-triazol-3-yl)methyl]oxetan-3-yl}phenyl)-5-(trifluoromethyl)-1H-pyrazolo[3,4-c]pyridin-7-yl]ethyl}cyclobutanamine], for which the EC50 turned out to be 15 nM in experiment [1] (setting [6]), 8 nM in experiment [1] (setting [4]), 60 nM in experiment [2] (setting [5]) and 56 nM in experiment [2] (setting [7]). For the same compound, in experiment [3], the Ki stood at 1.3 nM.

On to `Cn1cnnc1CC1(c2cccc(-c3n[nH]c4c(CN5CCCCC5)nc(C(F)(F)F)cc34)c2)COC1` [Example C33, 3-(3-{3-[(4-methyl-4H-1,2,4-triazol-3-yl)methyl]oxetan-3-yl}phenyl)-7-[(piperidin-1-yl)methyl]-5-(trifluoromethyl)-1H-pyrazolo[3,4-c]pyridine], for which the results for the EC50 in experiment [1] (setting [4]) and in experiment [2] (setting [5]) were 116 nM and 1840 nM, respectively. Moreover, the Ki in experiment [3] came out at 22.6 nM.

`CC(c1nc(C(F)(F)F)cc2c(-c3cccc(C4(Cc5nncn5C)COC4)c3)n[nH]c12)N1CCC[C@H](C)C1` (single isomer, unassigned) [Example C20]: the EC50 in experiment [1] (setting [6]) came out at 15 nM; in experiment [1] (setting [4]) it was 12 nM; in experiment [2] (setting [5]), 78 nM; in experiment [2] (setting [7]), 56 nM. Besides, the Ki in experiment [3] is 2.4 nM.

For `CC1CN(Cc2nc(C(F)(F)F)cc3c(-c4cccc(C5(Cc6nncn6C)COC5)c4)n[nH]c23)CCC1(F)F` (single isomer, unassigned) [Example C31, 7-{[(3ξ)-4,4-difluoro-3-methylpiperidin-1-yl]methyl}-3-(3-{3-[(4-methyl-4H-1,2,4-triazol-3-yl)methyl]oxetan-3-yl}phenyl)-5-(trifluoromethyl)-1H-pyrazolo[3,4-c]pyridine], the EC50 in experiment [1] (setting [4]) turned out to be 166 nM; in experiment [2] (setting [5]), 1370 nM. Moreover, the Ki in experiment [3] was found to be 21.7 nM.

With `C[C@@H](NC1CCCC1)c1nc(C(F)(F)F)cc2c(-c3cccc(C4(Cc5nncn5C)COC4)c3)n[nH]c12` (single isomer, unassigned) [Example C15], the EC50 worked out at 43 nM in experiment [1] (setting [4]) and 229 nM in experiment [2] (setting [5]). For the same compound, the Ki in experiment [3] stood at 8.9 nM.

For `C[C@H](N[C@@H]1CCC[C@@H]1O)c1nc(C(F)(F)F)cc2c(-c3cccc([C@H](c4nncn4C)C4CCC4)c3)n[nH]c12` (single isomer, unassigned) [Example D15], the EC50 in experiment [1] (setting [6]) amounted to 4 nM; in experiment [1] (setting [4]), 3 nM; in experiment [2] (setting [5]), 20 nM; in experiment [2] (setting [7]), 11 nM. Also, the Ki in experiment [3] is 0.9 nM.

In the case of `C[C@@H]1CCCN([C@@H](C)c2nc(C(F)(F)F)cc3c(-c4cccc(C5(Cc6nncn6C)COC5)c4)n[nH]c23)C1` (single isomer, unassigned) [Example D13], the EC50 in experiment [1] (setting [4]) came to 149 nM; in experiment [2] (setting [5]), 539 nM. Besides, the Ki in experiment [3] is 15 nM.

For the compound `CC(c1nc(C(F)(F)F)cc2c(-c3cccc(C4(Cc5nncn5C)COC4)c3)n[nH]c12)N1CCCCC1` (single isomer, unassigned) [Example C21, 3-(3-{3-[(4-methyl-4H-1,2,4-triazol-3-yl)methyl]oxetan-3-yl}phenyl)-7-[(1ξ)-1-(piperidin-1-yl)ethyl]-5-(trifluoromethyl)-1H-pyrazolo[3,4-c]pyridine], the EC50 in experiment [1] (setting [4]) turned out to be 152 nM; in experiment [2] (setting [5]), 851 nM. Further, the Ki in experiment [3] stood at 21.3 nM.

For the compound `Cn1cnnc1[C@@H](c1cccc(-c2n[nH]c3cnc(C(F)(F)F)cc23)c1)C1CCC1` [Example A1, 3-{3-[(R)-cyclobutyl(4-methyl-4H-1,2,4-triazol-3-yl)methyl]phenyl}-5-(trifluoromethyl)-1H-pyrazolo[3,4-c]pyridine], the EC50 in experiment [1] (setting [6]) was 1810 nM; in experiment [1] (setting [4]), over 2990 nM; in experiment [2] (setting [5]), over 5280 nM; in experiment [2] (setting [7]), 4500 nM. Further, in experiment [3], the Ki came to 74.4 nM.

Take `C[C@H](N[C@H]1CCC(F)(F)C1)c1nc(C(F)(F)F)cc2c(-c3cccc([C@H](c4nncn4C)C4CCC4)c3)n[nH]c12` [Example C8]: the EC50 in experiment [1] (setting [4]) was 6 nM; in experiment [2] (setting [5]) it was 44 nM. The Ki in experiment [3] amounted to 1.1 nM.

Regarding `Cn1cnnc1CC1(c2cccc(-c3n[nH]c4cnc(C(F)(F)F)cc34)c2)COC1` [Example B1, 3-(3-(3-((4-methyl-4H-1,2,4-triazol-3-yl)methyl)oxetan-3-yl)phenyl)-5-(trifluoromethyl)-1H-pyrazolo[3,4-c]pyridine], the EC50 in experiment [1] (setting [4]) is over 8710 nM; in experiment [2] (setting [5]) it was over 9980 nM. Besides, the Ki in experiment [3] amounted to 62.7 nM.

As to `CC(c1nc(C(F)(F)F)cc2c(-c3cccc(C4(Cc5nncn5C)COC4)c3)n[nH]c12)N1CCOCC1` (single isomer, unassigned) [Example C23, 3-(3-{3-[(4-methyl-4H-1,2,4-triazol-3-yl)methyl]oxetan-3-yl}phenyl)-7-[(1ξ)-1-(morpholin-4-yl)ethyl]-5-(trifluoromethyl)-1H-pyrazolo[3,4-c]pyridine], the values for the EC50 in experiment [1] (setting [4]) and in experiment [2] (setting [5]) were 152 nM and 800 nM, respectively. Further, in experiment [3], the Ki was 5.7 nM.

As to `C[C@@H](N[C@H]1CCOC1)c1nc(C(F)(F)F)cc2c(-c3cccc([C@H](c4nncn4C)C4CCC4)c3)n[nH]c12` (single isomer, unassigned) [Example C3], the EC50 in experiment [1] (setting [4]) is over 159 nM; in experiment [2] (setting [5]), 639 nM. Besides, the Ki in experiment [3] came out at 7.8 nM.

With `C[C@H](O)CN[C@@H](C)c1nc(C(F)(F)F)cc2c(-c3cccc([C@H](c4nncn4C)C4CCC4)c3)n[nH]c12` (single isomer, unassigned) [Example D19], the EC50 turned out to be 24 nM in experiment [1] (setting [6]), 9 nM in experiment [1] (setting [4]), 132 nM in experiment [2] (setting [5]) and 157 nM in experiment [2] (setting [7]). The Ki in experiment [3] is 1 nM.

`CC(NC1CNC1)c1nc(C(F)(F)F)cc2c(-c3cccc(C4(Cc5nncn5C)COC4)c3)n[nH]c12` (single isomer, unassigned) [Example C27, N-{(1ξ)-1-[3-(3-{3-[(4-methyl-4H-1,2,4-triazol-3-yl)methyl]oxetan-3-yl}phenyl)-5-(trifluoromethyl)-1H-pyrazolo[3,4-c]pyridin-7-yl]ethyl}azetidin-3-amine]: the EC50 is over 1290 nM in experiment [1] (setting [4]) and over 4300 nM in experiment [2] (setting [5]). In experiment [3], the Ki came out at 31.4 nM.

Consider `C[C@@H](N[C@H]1C[C@@H](O)C1)c1nc(C(F)(F)F)cc2c(-c3cccc([C@H](c4nncn4C)C4CCC4)c3)n[nH]c12` (single isomer, unassigned) [Example C37], for which the EC50 amounted to 173 nM in experiment [1] (setting [4]) and 1040 nM in experiment [2] (setting [5]). For the same compound, the Ki in experiment [3] stood at 5.3 nM.

Turning to `C[C@H](c1nc(C(F)(F)F)cc2c(-c3cccc(C4(Cc5nncn5C)COC4)c3)n[nH]c12)N1CCC(F)(F)C1` (single isomer, unassigned) [Example D6], the figures for the EC50 in experiment [1] (setting [4]) and in experiment [2] (setting [5]) were 64 nM and 235 nM, respectively. Also, the Ki in experiment [3] worked out at 4.6 nM.

`CC(NC1CCCC1)c1nc(C(F)(F)F)cc2c(-c3cccc([C@H](c4nncn4C)C4CCC4)c3)n[nH]c12` (stereo partly drawn) [Example C14, N-{(1ξ)-1-[3-{3-[(R)-cyclobutyl(4-methyl-4H-1,2,4-triazol-3-yl)methyl]phenyl}-5-(trifluoromethyl)-1H-pyrazolo[3,4-c]cyclopen-7-yl]ethyl}cyclopentanamine]: the EC50 in experiment [1] (setting [6]) was 5 nM; in experiment [1] (setting [4]), 4 nM; in experiment [2] (setting [5]) it was 26 nM; in experiment [2] (setting [7]), 17 nM. Besides, the Ki in experiment [3] came out at 0.4 nM.

For the compound `C[C@H](N[C@H]1C[C@@H](O)C1)c1nc(C(F)(F)F)cc2c(-c3cccc([C@H](c4nncn4C)C4CCC4)c3)n[nH]c12` (single isomer, unassigned) [Example C36], the EC50 in experiment [1] (setting [6]) stood at 35 nM; in experiment [1] (setting [4]), 20 nM; in experiment [2] (setting [5]), 173 nM; in experiment [2] (setting [7]) it was 160 nM. For the same compound, the Ki in experiment [3] stood at 1.8 nM.

As to `C[C@H](c1nc(C(F)(F)F)cc2c(-c3cccc(C4(Cc5nncn5C)COC4)c3)n[nH]c12)N1CC[C@@H](F)C1` (single isomer, unassigned) [Example D10], the values for the EC50 in experiment [1] (setting [4]) and in experiment [2] (setting [5]) were 102 nM and 595 nM, respectively. Further, the Ki in experiment [3] came to 6.6 nM.

Consider `C[C@@H](NC1CCC1)c1nc(C(F)(F)F)cc2c(-c3cccc(C4(Cc5nncn5C)COC4)c3)n[nH]c12` [Example C16], for which the EC50 in experiment [1] (setting [4]) turned out to be 75 nM; in experiment [2] (setting [5]), 689 nM. Moreover, the Ki in experiment [3] was found to be 10 nM.

`C[C@@H](N[C@@H]1CCOC1)c1nc(C(F)(F)F)cc2c(-c3cccc([C@H](c4nncn4C)C4CCC4)c3)n[nH]c12` (single isomer, unassigned) [Example D3]: the half-maximal effective concentration (EC50) was found to be 67 nM in experiment [1] (setting [6]), 47 nM in experiment [1] (setting [4]), 472 nM in experiment [2] (setting [5]) and 333 nM in experiment [2] (setting [7]). Moreover, the Ki in experiment [3] is 6 nM.

For orientation: EC50 means the concentration giving half of the maximal effect. As a reminder, the Ki is a measure of affinity in units of concentration, obtained from inhibition or displacement.

The values are drawn from US20260125375A1 (Pfizer Inc., priority 2022, published 2026).
